This note sets out measurements from patent US9878992B2, “GDF-8 inhibitors” (Rigel Pharmaceuticals, Inc., priority 2012, dated 2018).

One test relates to GDF8 signaling. In words: AlphaScreen SureFire SMAD3 (p-Ser423/425) assay, GDF8-stimulated cells. In kind it is cell-based. To be noted: Mus musculus, MPC-11, inhibition of GDF8 signaling; pSMAD readout; MPC11; read-out: GDF pSMAD (MPC11). The text has this: [The procedure below names another cell line; the source lists this cell line under the same test.] The p-SMAD-3 (Ser423/425) SureFire® assay has been designed to measure the phosphorylation of endogenous cellular p-SMAD-3 (Ser423/425) in cell lysates and is a system for the screening of both modulators of receptor activation (e.g. agonists and antagonists) as well as agents acting intracellularly, such as small molecule inhibitors of upstream events. The assay will measure p-SMAD-3 (Ser423/425) activation by either cloned or endogenous receptors, and can be applied to primary cells.
P-SMAD-3 (Ser423/425) SureFire® Assay Protocols
Step A: Preparation of Buffers
1× Lysis buffer: 1 ml of 5× Lysis buffer was diluted with 4 ml of sterile water. After dilution, excess 1× Lysis buffer can be frozen and thawed up to 5 times without loss in activity.
Activation buffer: The buffer was warmed slowly to 37° C. and gently mixed to re-suspend. Activation buffer can be stored at room temperature with no loss in activity.
Reaction buffer: The buffer was kept at 4° C. while in use.
AlphaScreen® Protein A IgG Kit: The kit was stored at 4° C. in the dark.
Reaction buffer+Activation buffer+AlphaScreen® Acceptor beads: Reaction buffer (40 parts), Activation Buffer (10 parts) and Acceptor beads (1 part) were mixed and the mixture was stored at room temperature and used the same day. Mixture was added to 384-well plates; excess mixture was discarded.
Dilution buffer+AlphaScreen® Donor beads: Dilution buffer (20 parts) and Donor beads (1 part) were mixed and the mixture was stored at room temperature and used the same day. Excess mixture was discarded.
Assay control samples: After reconstitution in 250 μl of water, lysates were at −20° C. in single use aliquots.
Step B: Preparation of Samples and Cells
96-well Assay Protocol for 293FT and RMS13 adherent cells can be carried out manually or in high throughput with liquid handling robots.
The cells (80 μL, of cells for 96 well plates) were plated in collagen coated tissue culture plates in RPMI or FreeStyle medium (Invitrogen) and incubated overnight. For manual analysis, 6 plates for GDF8, 6 plates for TGFβ, and optionally 6 plates for Alk5ca (ALK5 constitutively active) were used.
The compound dilution plates were prepared as follows: 12 μL of DMSO was transferred into first column of 96-well plate, and 16 μL of DMSO was transferred into columns 2-12 of the 96-well plate. 12 μL of compound solution was transferred into first column of the DMSO-containing 96-well plate. Three-fold dilution was performed up to column 10 of the DMSO-containing 96-well plate.
Step C: Treatment and Analysis
The plate containing cells were treated with compounds for about 10 minutes, and then ligand was added. GDF8 or TGFb was added to plates to stimulate. 293FL cells were stimulated for 90 minutes at 37° C.; and RMS13 cells were stimulated for 60 minutes at 37° C. The medium was then removed from the cells, and 1× Lysis Buffer (about 25 μL) was added and the plate was gently agitated on plate shaker for 5-10 minutes.
The lysate (5 μL) was then placed into 384-well shallow plates avoiding the generation of bubbles. To this, the Reaction Buffer+Activation Buffer+AlphaScreen® Acceptor beads mixture (5 μL) was added. The plate was sealed with adhesive cover and shielded from light (e.g., with metal foil), and agitated gently on plate shaker for 2 hours at room temperature.
Dilution buffer+AlphaScreen® Donor beads (2 μL) was then added, and the plate was intubated on the plate shaker for an additional 1½ hours. After completion, the plate was read on Synergy-4 or Enspire plate reader, using AlphaScreen® pSMAD3® settings.
(Bead proximity is the source of the signal in Alpha formats.)

The next test deals with MAP4K4 (Homo sapiens, UniProt O95819). In words: MAP4K4 inhibition. It counts as biochemical. The text has this: Such compounds are particularly useful in muscle disorders, such as cachexia and sarcopenia as MAP4K4 acts as a suppressor of skeletal muscle differentiation. See, Wang M, Amano S U, Flach R J, Chawla A, Aouadi M, Czech P. Molecular and cellular biology. 2013 February; 33(4): 678-87.
Sequence of MAP4K4 (O95819 whole entry, species assumed): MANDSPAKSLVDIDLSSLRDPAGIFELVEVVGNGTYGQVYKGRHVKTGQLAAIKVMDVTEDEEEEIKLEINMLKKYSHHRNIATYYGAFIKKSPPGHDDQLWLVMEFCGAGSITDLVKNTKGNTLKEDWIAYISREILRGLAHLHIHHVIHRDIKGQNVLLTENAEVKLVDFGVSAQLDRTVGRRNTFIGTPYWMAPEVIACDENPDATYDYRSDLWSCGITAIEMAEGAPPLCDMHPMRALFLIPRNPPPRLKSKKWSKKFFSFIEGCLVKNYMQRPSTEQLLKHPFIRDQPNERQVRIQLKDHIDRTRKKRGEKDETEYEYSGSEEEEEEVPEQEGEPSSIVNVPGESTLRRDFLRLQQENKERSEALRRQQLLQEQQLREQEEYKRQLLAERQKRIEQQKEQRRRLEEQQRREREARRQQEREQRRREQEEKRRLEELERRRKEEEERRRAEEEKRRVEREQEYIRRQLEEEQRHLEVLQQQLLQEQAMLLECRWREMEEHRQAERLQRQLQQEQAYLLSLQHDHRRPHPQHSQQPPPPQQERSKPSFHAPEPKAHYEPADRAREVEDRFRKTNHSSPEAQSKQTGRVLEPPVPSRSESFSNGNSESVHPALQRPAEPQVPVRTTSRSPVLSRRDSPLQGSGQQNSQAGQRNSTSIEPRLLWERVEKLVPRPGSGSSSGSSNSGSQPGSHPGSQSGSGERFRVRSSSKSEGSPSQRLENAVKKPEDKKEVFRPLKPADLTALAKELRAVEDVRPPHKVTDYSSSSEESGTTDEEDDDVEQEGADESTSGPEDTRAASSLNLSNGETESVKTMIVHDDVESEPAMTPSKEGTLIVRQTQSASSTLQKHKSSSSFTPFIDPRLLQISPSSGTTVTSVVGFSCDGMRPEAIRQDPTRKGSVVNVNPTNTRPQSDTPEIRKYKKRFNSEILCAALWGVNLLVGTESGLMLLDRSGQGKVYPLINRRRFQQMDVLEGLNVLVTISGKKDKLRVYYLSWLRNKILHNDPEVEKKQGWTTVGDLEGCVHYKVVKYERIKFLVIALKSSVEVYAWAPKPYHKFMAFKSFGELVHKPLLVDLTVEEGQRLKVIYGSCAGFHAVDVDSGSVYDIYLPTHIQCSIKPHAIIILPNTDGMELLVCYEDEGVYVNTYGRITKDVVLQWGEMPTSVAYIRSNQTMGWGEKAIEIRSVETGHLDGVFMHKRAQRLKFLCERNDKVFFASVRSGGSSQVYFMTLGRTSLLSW

As to `Cc1cc(-c2ncc(F)cc2-c2ccc3[nH]ncc3c2)ccc1F` [Compound 10, 5-(5-Fluoro-2-(4-fluoro-3-methylphenyl)pyridin-3-yl)-1H-indazole], the IC50 in the test on GDF8 signaling is 535 nM.

For the molecule `Cc1cccc(-c2ncccc2-c2ccc3ncn(CCCON)c3c2)c1` [Compound 38], the IC50 with GDF8 signaling came to 3230 nM.

Turning to `Cc1cc(-c2ncccc2-c2ccc3[nH]ncc3c2)ccc1F` [Compound 63, 5-(2-(4-Fluoro-3-methylphenyl)pyridin-3-yl)-1H-indazole], the IC50 at MAP4K4 was less than 500 nM.

In the case of `Cc1cc(-c2ncccc2-c2ccc3nn(COP(=O)(O)O)cc3c2)ccc1F` [Compound 172, [5-(2-(4-Fluoro-3methylphenyl)pyridin-3-yl)-2H-indazol-2-yl]methyl dihydrogen phosphate], the IC50 in the test on GDF8 signaling stood at 187 nM.

In the case of `Cc1cc(-c2ncccc2-c2ccc3ncccc3c2)ccc1F` [Compound 207, 6-(2-(4-Fluoro-3-methylphenyl)pyridin-3-yl)quinoline], the IC50 with GDF8 signaling was found to be 2040 nM.

As for `Cc1cccc(-c2ncccc2-c2ccc3ncccc3c2)c1` [Compound 208, 6-(2-m-Tolylpyridin-3-yl)quinoline], the IC50 in the test with GDF8 signaling came to 1150 nM.

Take `Cc1cc(-c2ncc(CO)cc2-c2ccc3nccnc3c2)ccc1F` [Compound 222, (6-(4-Fluoro-3-methylphenyl)-5-(quinoxalin-6-yl)pyridin-3-yl)methanol]: the IC50 with GDF8 signaling is 5620 nM.

`COc1ncnc2ccc(-c3cccnc3-c3cccc(O)c3)cc12` [Compound 378, 3-(3-(4-Methoxyquinazolin-6-yl)pyridin-2-yl)phenol]: the IC50 with GDF8 signaling worked out at 558 nM.

As to `Cc1cc(-c2ncccc2-c2ccc3ncnc(N4CCOCC4)c3c2)ccc1F` [Compound 385, 4-(6-(2-(4-Fluoro-3-methylphenyl)pyridin-3-yl)quinazolin-4-yl)morpholine], in the test with GDF8 signaling, the IC50 came out at 2560 nM.

On MAP4K4, `O=c1nc[nH]c2ccc(-c3cccnc3-c3cccc(Cl)c3)cc12` [Compound 389, 6-(2-(3-Chlorophenyl)pyridin-3-yl)quinazolin-4(1H)-one] returned an IC50 of less than 500 nM.

Turning to `Cc1cc(-c2ncccc2-c2ccc3ncnc(OCCN4CCOCC4)c3c2)ccc1F` [Compound 425, 4-(2-((6-(2-(4-Fluoro-3-methylphenyl)pyridin-3-yl)quinazolin-4-yl)oxy)ethyl)morpholine], the IC50 in the test on GDF8 signaling was found to be 537 nM.

In the case of `Nc1ncnc2ccc(-c3cccnc3-c3ccc(F)c(Cl)c3)cc12` [Compound 448, 6-(2-(3-Chloro-4-fluorophenyl)pyridin-3-yl)quinazolin-4-amine], at MAP4K4, the IC50 was less than 500 nM.

`Nc1ncnc2ccc(-c3cccnc3-c3cccc(O)c3)cc12` [Compound 456, 3-(3-(4-Aminoquinazolin-6-yl)pyridin-2-yl)phenol] registered an IC50 on MAP4K4 of less than 500 nM.

Regarding `Nc1ncnc2ccc(-c3cccnc3-c3cc(F)cc(Cl)c3)cc12` [Compound 460, 6-(2-(3-Chloro-5-fluorophenyl)pyridin-3-yl)quinazolin-4-amine], on MAP4K4, the IC50 was less than 500 nM.

As for `Nc1ncnc2ccc(-c3cccnc3-c3cc(O)cc(F)c3)cc12` [Compound 494, 3-(3-(4-Aminoquinazolin-6-yl)pyridin-2-yl)-5-fluorophenol], at MAP4K4, the IC50 was less than 500 nM.

`COc1cc(-c2cnc3ccc(-c4cccnc4-c4ccc(F)c(C)c4)cn23)cc(OC)c1OC` [Compound 577, 6-(2-(4-Fluoro-3-methylphenyl)pyridin-3-yl)-3-(3,4,5-trimethoxyphenyl)imidazo[1,2-a]pyridine]: the IC50 in the test with GDF8 signaling turned out to be 2260 nM.

For the molecule `[2H]C([2H])([2H])c1cccc(-c2ncccc2-c2ccc3ncc(C(C)=O)n3c2)c1` [Compound 606, 1-(6-(2-(3-(Methyl-d3)phenyl)pyridin-3-yl)imidazo[1,2-a]pyridin-3-yl)ethan-1-one], in the test with GDF8 signaling, the IC50 is 1440 nM.

For the molecule `Cc1cc(-c2ncccc2-c2ccc3ncc(C(=O)N[C@@H]4C[C@@H]5CCCN5C(C)(C)C4)n3c2)ccc1F` [Compound 744, N-((7R,8aS)-5,5-Dimethyloctahydroindolizin-7-yl)-6-(2-(4-fluoro-3-methylphenyl)pyridin-3-yl)imidazo[1,2-a]pyridine-3-carboxamide], in the test on GDF8 signaling, the IC50 turned out to be 968 nM.

`Cc1cc(-c2ncccc2-c2ccn3ncc(C(=O)N[C@@H]4C[C@@H]5CCCN5C(C)(C)C4)c3c2)ccc1F` [Compound 745, N-((7R,8aS)-5,5-Dimethyloctahydroindolizin-7-yl)-5-(2-(4-difluoro-3-methylphenyl)pyridin-3-yl)pyrazolo[1,5-a]pyridine-3-carboxamide]: the IC50 in the test on GDF8 signaling worked out at 366 nM.

`Nc1ncnc2ccc(-c3cccnc3-c3cc(Cl)ccc3F)cc12` [Compound 818, 6-(2-(5-Chloro-2-fluorophenyl)pyridin-3-yl)quinazolin-4-amine] showed an IC50 on MAP4K4 of less than 500 nM.

Regarding `Fc1ccc(Cl)cc1-c1ncccc1-c1ccc2nccn2n1` [Compound 937, 6-(2-(5-Chloro-2-fluorophenyl)pyridin-3-yl)imidazo[1,2-b]pyridazine], the IC50 in the test with GDF8 signaling was 207 nM.
